# Article PMC11266714, “Extraction optimization and reactivity of 7α-acetoxy-6β-hydroxyroyleanone and ability of its derivatives to modulate PKC isoforms” (Scientific Reports, 2024)
# Where two headings read alike, the source gives them in different places.
# Legend:
# [1] = tested on: non-tumorigenic foreskin fibroblasts HFF-1 cells; test: Sulforhodamine B (SRB) cell proliferation assay, HFF-1; type: cell-based, human
# Description: (§1) The cytotoxic effect (IC50 values, Table 4) was determined from dose–response curves.
# (§2) Royleanones and doxorubicin (Doxo) were tested on human breast adenocarcinoma lines. […] HFF‐1 cells were cultured in DMEM/F‐12 supplemented with 10% FBS. All cells were maintained at 37 °C in a humidified atmosphere of 5% CO2. Cells were routinely tested for mycoplasma infection using the MycoAlert™ PLUS mycoplasma detection kit (Lonza).
# (§3) For the evaluation of the effect of the compounds on cell proliferation, the SRB assay was performed. […] Cells were treated for 48 h with serial dilutions of the compounds (ranging from 0.1 to 30.0 µM). The effects on cell proliferation were assessed by SRB assay, as described, and IC50 values were determined for each cell line using the GraphPad Prism software version 7.0 (La Jolla, CA, USA).
# [2] = tested on: MDA-MB-231 human breast adenocarcinoma cells; test: Sulforhodamine B (SRB) cell proliferation assay, MDA-MB-231; type: cell-based
# Description: as §1, §2, §3
# [3] = tested on: MDA-MB-468 human breast adenocarcinoma cells; test: Sulforhodamine B (SRB) cell proliferation assay, MDA-MB-468; type: cell-based
# Description: as §1, §2, §3
# [4] = tested on: MCF-7 human breast adenocarcinoma cells; test: Sulforhodamine B (SRB) cell proliferation assay, MCF-7; type: cell-based
# Description: as §1, §2, §3
# PKC-ε = target: T1, PKC-ε (Homo sapiens, UniProt Q02156); test: Yeast PKC assay, PKC-ε; type: cell-based
# T1 construct: expressed in transfected cells; host or cells: Saccharomyces cerevisiae
# T1 sequence (Q02156 1-737): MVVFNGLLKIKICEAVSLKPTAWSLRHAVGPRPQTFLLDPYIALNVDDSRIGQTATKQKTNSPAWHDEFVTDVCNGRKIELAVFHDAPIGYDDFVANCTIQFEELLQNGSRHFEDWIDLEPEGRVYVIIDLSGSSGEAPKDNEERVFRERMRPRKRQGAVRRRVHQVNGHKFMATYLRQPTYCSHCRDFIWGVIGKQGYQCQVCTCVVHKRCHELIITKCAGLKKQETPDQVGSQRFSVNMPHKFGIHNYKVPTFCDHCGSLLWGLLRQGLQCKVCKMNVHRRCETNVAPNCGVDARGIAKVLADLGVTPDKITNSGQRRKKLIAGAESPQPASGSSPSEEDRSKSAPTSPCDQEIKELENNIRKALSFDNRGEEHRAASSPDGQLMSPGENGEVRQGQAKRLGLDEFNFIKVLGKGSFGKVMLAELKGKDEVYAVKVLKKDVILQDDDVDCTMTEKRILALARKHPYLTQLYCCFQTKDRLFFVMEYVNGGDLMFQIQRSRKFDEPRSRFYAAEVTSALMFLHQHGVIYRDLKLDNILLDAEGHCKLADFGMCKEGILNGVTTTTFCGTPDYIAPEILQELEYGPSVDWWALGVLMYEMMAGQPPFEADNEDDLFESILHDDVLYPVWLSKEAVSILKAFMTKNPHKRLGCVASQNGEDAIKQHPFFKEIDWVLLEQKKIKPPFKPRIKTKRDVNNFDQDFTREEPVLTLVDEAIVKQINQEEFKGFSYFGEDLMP
# Excerpt: (§4) PKC isoforms are key targets for cancer therapy due to their significant roles in cancer development and progression. The selective-PKC-δ activation observed for RoyBz is well established. Nonetheless, it is important to understand the effect of Roy on PKC isoforms. Due to the specificity of the assay, it was decided to evaluate only few compounds: the natural ones Roy and DeRoy and two derivatives, one aromatic ester RoyBz and one aliphatic ester RoyPr[27] as PKC-α, -βI, -δ, -ε, and -ζ activators using the yeast PKC assay.
# (§5) For the determination of EC50 values were considered the concentration of compound that caused 50% of the maximal growth inhibition caused by the positive controls (phorbol 12-myristate 13-acetate, PMA, for cPKCs and nPKCs; arachidonic acid, ARA, for PKCζ), which was set as 100%. Data are mean ± SEM of four independent experiments. nt, not tested; ND, non-determinable (when the maximal response achieved was lower than 50% growth inhibition).
# (§6) The royleanones Roy, RoyBz and RoyPr were tested on the yeast assay as reported in[3]. Briefly, Saccharomyces cerevisiae cells individually expressing mammalian PKC-α, -βI, -δ, -ε, or -ζ, and control yeast (transformed with empty vector) obtained in previous works were used. Cells were grown in galactose selective medium in the presence of 0.1—30 μM of compounds (or 0.1% DMSO only) for approximately 42 h. Yeast growth was analyzed by counting the number of colony-forming units, after 2 days incubation at 30 °C. The growth of yeast transformed with the empty vector (control) was considered as 100%. From the dose–response curves obtained, EC50 (half maximal effective concentration) values were determined for the tested compounds.
# PKC-βI = target: T2, PKC-βI (Rattus norvegicus, UniProt P68403); test: Yeast PKC assay, PKC-βI; type: cell-based, yeast (Saccharomyces cerevisiae)
# T2 construct: expressed in transfected cells; host or cells: Saccharomyces cerevisiae
# T2 sequence (P68403 whole entry): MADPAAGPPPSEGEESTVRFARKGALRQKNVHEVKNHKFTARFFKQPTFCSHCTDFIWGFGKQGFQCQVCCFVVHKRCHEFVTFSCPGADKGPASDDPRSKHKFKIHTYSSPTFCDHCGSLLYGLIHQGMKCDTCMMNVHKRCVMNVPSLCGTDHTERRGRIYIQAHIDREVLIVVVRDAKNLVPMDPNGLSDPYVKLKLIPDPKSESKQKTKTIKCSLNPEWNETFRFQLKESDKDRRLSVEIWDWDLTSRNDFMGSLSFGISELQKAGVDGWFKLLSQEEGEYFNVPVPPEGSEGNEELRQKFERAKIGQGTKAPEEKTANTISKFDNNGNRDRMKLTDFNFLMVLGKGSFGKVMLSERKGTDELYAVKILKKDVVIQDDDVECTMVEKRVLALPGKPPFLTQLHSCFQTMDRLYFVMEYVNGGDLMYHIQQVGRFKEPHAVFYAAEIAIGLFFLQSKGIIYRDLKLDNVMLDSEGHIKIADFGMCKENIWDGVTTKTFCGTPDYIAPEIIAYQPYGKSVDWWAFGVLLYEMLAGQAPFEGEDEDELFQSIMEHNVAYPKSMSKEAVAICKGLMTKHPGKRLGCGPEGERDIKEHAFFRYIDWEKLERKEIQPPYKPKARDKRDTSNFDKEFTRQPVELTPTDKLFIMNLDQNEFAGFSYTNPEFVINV
# Excerpt: as §4, §5, §6
# PKC-δ [5] = target: T3, PKC-δ (Rattus norvegicus, UniProt P09215); test: Yeast PKC assay, PKC-δ; type: cell-based
# T3 construct: expressed in transfected cells; host or cells: Saccharomyces cerevisiae
# T3 sequence (P09215 whole entry): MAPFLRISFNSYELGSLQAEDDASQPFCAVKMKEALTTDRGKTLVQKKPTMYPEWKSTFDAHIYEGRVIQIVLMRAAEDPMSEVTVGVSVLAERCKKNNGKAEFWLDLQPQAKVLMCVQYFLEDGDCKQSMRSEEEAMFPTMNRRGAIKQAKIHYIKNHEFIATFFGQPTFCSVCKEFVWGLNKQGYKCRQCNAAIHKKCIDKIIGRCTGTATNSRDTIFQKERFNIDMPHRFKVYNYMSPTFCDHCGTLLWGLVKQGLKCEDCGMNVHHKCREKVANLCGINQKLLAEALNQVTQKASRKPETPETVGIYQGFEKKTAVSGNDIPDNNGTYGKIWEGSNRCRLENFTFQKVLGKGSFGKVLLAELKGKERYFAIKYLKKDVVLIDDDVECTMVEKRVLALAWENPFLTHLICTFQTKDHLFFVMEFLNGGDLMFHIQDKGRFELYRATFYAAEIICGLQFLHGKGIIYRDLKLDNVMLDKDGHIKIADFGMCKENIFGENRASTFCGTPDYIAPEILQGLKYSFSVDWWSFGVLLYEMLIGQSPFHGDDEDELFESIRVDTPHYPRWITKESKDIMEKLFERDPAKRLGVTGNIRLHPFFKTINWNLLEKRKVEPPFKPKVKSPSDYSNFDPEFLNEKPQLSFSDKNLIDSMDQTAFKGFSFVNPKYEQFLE
# Excerpt: as §4, §5, §6
# PKC-α = target: T4, PKC-α (Bos taurus, UniProt P04409); test: Yeast PKC assay, PKC-α; type: cell-based, yeast (Saccharomyces cerevisiae)
# T4 construct: expressed in transfected cells; host or cells: Saccharomyces cerevisiae
# Excerpt: as §4, §5, §6
# PKC-δ [6] = target: T3, PKC-δ; design: method as in PMID 29348560; conditions: yeast PKC assay; cited from earlier work
# [7] = tested on: MCF-7 human breast adenocarcinoma cells; conditions: cited from earlier work
# PKC-ζ = target: T5, PKC-ζ (Mus musculus, UniProt Q02956); test: Yeast PKC assay, PKC-ζ; type: cell-based
# T5 construct: expressed in transfected cells; host or cells: Saccharomyces cerevisiae
# T5 sequence (Q02956 1-592): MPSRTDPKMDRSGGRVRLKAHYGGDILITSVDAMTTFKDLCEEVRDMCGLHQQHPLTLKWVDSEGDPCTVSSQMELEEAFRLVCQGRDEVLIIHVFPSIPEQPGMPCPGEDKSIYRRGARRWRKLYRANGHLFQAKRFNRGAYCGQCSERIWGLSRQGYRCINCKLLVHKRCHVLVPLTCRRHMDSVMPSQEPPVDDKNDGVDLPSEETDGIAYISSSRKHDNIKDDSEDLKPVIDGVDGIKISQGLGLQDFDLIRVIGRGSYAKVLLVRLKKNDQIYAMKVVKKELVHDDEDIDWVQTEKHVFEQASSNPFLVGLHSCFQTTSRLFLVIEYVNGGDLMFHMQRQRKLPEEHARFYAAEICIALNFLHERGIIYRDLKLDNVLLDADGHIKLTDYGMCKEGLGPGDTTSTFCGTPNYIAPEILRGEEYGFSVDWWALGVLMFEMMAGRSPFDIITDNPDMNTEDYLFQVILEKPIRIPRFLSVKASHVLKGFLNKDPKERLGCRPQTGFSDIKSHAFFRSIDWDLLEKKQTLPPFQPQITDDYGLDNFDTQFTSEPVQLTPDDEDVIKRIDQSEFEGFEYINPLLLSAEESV
# Excerpt: as §4, §5, §6
# [8] = Homo sapiens, HFF-1, 48 h treatment
# [9] = Homo sapiens, MDA-MB-231, 48 h, 48 h treatment
# [10] = Homo sapiens, MDA-MB-468, 48 h, 48 h treatment
# [11] = Homo sapiens, MCF7, 48 h treatment
# [12] = Homo sapiens, MDA-MB-231, 48 h treatment
# [13] = Homo sapiens, MDA-MB-468, 48 h treatment
# [14] = yeast growth inhibition, 50% of maximal effect of PMA, mean ± SEM, four experiments, ND = maximal response lower than 50% growth inhibition, read-out: EC50 (nM) PKC-ε
# [15] = yeast growth inhibition, 50% of maximal effect of PMA, mean ± SEM, four experiments, ND = maximal response lower than 50% growth inhibition, read-out: EC50 (nM) PKC-βI
# [16] = yeast growth inhibition, 50% of maximal effect of PMA, mean ± SEM, four experiments, ND = maximal response lower than 50% growth inhibition, read-out: EC50 (nM) PKC-δ
# [17] = yeast growth inhibition, 50% of maximal effect of PMA, mean ± SEM, four experiments, ND = maximal response lower than 50% growth inhibition, read-out: EC50 (nM) PKC-α
# [18] = yeast growth inhibition, 50% of maximal effect of ARA, mean ± SEM, four experiments, ND = maximal response lower than 50% growth inhibition, read-out: EC50 (nM) PKC-ζ
smiles,measurement,setting,value
"CC(=O)O[C@H]1C2=C(C(=O)C(OC(=O)c3ccccc3)=C(C(C)C)C2=O)[C@@]2(C)CCCC(C)(C)[C@@H]2[C@@H]1O [Roy-12-Bz, 7α-acetoxy-6β-hydroxy-12-O-benzoylroyleanone]",IC50,[1]; [8],1160 ± 220 nM
same,IC50,[2]; [9],1650 ± 150 nM
same,IC50,[3]; [10],1280 nM
same,IC50,[4]; [11],4320 ± 240 nM
"CCCCCCCCCCCCCC(=O)O[C@@H]1[C@@H](C)[C@@]2(O)[C@@H](C=C(CO)C[C@]3(O)C(=O)C(C)=C[C@@H]23)[C@@H]2C(C)(C)[C@]12OC(C)=O [PMA, phorbol 12-myristate 13-acetate, reference compound]",EC50,PKC-ε,1680 ± 46.5 nM
same,EC50,PKC-βI,243 ± 69.1 nM
same,EC50,PKC-δ [5],574 ± 36.7 nM
same,EC50,PKC-α,112 ± 18.4 nM
"CC(=O)O[C@H]1C2=C(C(=O)C(OC(=O)c3ccccc3)=C(C(C)C)C2=O)[C@@]2(C)CCCC(C)(C)[C@@H]2[C@@H]1OC(=O)c1ccccc1 [RoyBz, 7α-acetoxy-6β-benzoyloxy-12-O-benzoylroyleanone]",EC50,PKC-δ [6],108 nM
same,IC50,[1]; [8],3580 ± 270 nM
same,IC50,[2]; [12],1500 ± 850 nM
same,IC50,[3]; [13],1400 ± 80 nM
same,IC50,[4]; [11],1660 ± 100 nM
"CC(C)C1=C(O)C(=O)C2=C(C1=O)[C@H](O)[C@@H](O)[C@H]1C(C)(C)CCC[C@]21C [DiRoy, 6β,7α-dihydroxyroyleanone]",IC50,[2]; [9],> 20000 nM
same,IC50,[3]; [10],> 20000 nM
same,IC50,[4]; [11],> 20000 nM
"CCC(=O)OC1=C(C(C)C)C(=O)C2=C(C1=O)C1(C)CCCC(C)(C)C1C(OC(=O)CC)C2OC(C)=O (stereo not drawn) [RoyPr, 7α-acetoxy-6β-propanoyloxy-12-O-propanoylroyleanone]",IC50,[7],28300 ± 2400 nM
same,EC50,PKC-ε; [14],770 ± 46 nM
same,EC50,PKC-βI; [15],229 ± 21 nM
same,EC50,PKC-δ [5]; [16],325 ± 49 nM
same,EC50,PKC-α; [17],195 ± 16 nM
"CC(C)C1=C(O)C(=O)C2=C(C=C[C@H]3C(C)(C)CCC[C@]23C)C1=O [DeRoy, 6,7-dehydroroyleanone]",IC50,[7],60400 ± 3690 nM
same,EC50,PKC-ε; [14],5.8 ± 0.7 nM
same,EC50,PKC-ζ,43.8 ± 2.32 nM
same,EC50,PKC-δ [5]; [16],3.1 ± 0.6 nM
same,EC50,PKC-α; [17],15 ± 1.9 nM
"CC(=O)OC1=C(C(C)C)C(=O)C2=C(C1=O)C1(C)CCCC(C)(C)C1C(OC(C)=O)C2OC(C)=O (stereo not drawn) [RoyAc, 7α,6β-diacetoxy-12-O-acetylroyleanone]",IC50,[1]; 48 h treatment,4970 ± 340 nM
same,IC50,[2]; 48 h treatment,1860 ± 90 nM
same,IC50,[3]; 48 h treatment,3250 ± 200 nM
same,IC50,[4]; 48 h treatment,4250 ± 570 nM
"COc1cccc2c1C(=O)c1c(O)c3c(c(O)c1C2=O)C[C@@](O)(C(=O)CO)C[C@@H]3O[C@H]1C[C@H](N)[C@H](O)[C@H](C)O1 [Doxo, Doxorubicin, reference compound]",IC50,[1]; [8],100 ± 120 nM
same,IC50,[2]; [12],1200 ± 50 nM
same,IC50,[3]; [13],300 ± 40 nM
same,IC50,[4]; [11],600 ± 10 nM
"CCCCC/C=C\C/C=C\C/C=C\C/C=C\CCCC(=O)O [ARA, arachidonic acid, reference compound]",EC50,PKC-ζ; [18],205 ± 32.6 nM
"CC(=O)OC1C2=C(C(=O)C(O)=C(C(C)C)C2=O)C2(C)CCCC(C)(C)C2C1O (stereo not drawn) [Roy, 7α-acetoxy-6β-hydroxyroyleanone]",EC50,PKC-ε; [14],994 ± 63 nM
same,IC50,[1]; [8],1020 ± 280 nM
same,EC50,PKC-ζ; [18],4110 ± 159 nM
same,EC50,PKC-βI; [15],423 ± 67 nM
same,IC50,[2]; 48 h treatment,350 ± 120 nM
same,IC50,[2]; [9],300 nM
same,EC50,PKC-α; [17],350 ± 42 nM
same,IC50,[3]; 48 h treatment,300 ± 160 nM
same,IC50,[3]; [10],350 nM
same,IC50,[4]; [11],2090 ± 420 nM
"CC(=O)OC1=C(C(C)C)C(=O)C2=C(C1=O)C1(C)CCCC(C)(C)C1C(O)C2OC(C)=O (stereo not drawn) [Roy-12-Ac, 7α-acetoxy-6β-hydroxy-12-O-acetylroyleanone]",IC50,[1]; 48 h treatment,600 ± 40 nM
same,IC50,[2]; 48 h treatment,2430 ± 150 nM
same,IC50,[3]; 48 h treatment,1600 ± 160 nM
same,IC50,[4]; 48 h treatment,5670 ± 240 nM
